Measured values taken from patent US8507724B2 (priority 2008, dated 2013).

Molecular target: T1, α1 homomeric glycine receptors (Rattus norvegicus, UniProt P07727)
T1 construct: expressed in transfected cells; host or cells: HEK 293 (transient transfection by electroporation, cDNA in pCIS2 vector)
T1 sequence (P07727 29-457): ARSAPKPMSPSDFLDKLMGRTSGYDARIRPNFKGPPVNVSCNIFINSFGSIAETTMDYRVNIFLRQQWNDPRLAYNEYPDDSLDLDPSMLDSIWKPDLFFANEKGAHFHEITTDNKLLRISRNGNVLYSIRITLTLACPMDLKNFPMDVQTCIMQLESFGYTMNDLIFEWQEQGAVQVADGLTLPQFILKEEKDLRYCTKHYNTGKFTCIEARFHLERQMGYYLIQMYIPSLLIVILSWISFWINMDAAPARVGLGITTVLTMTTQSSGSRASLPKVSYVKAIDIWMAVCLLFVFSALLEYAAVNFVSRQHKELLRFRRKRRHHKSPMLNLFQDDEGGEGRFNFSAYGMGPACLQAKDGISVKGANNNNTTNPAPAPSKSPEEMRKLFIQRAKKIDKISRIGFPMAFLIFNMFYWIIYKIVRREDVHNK
Assay: Whole-cell patch-clamp, Cl- current activated via α1 homomeric glycine receptors in transfected HEK 293 cells
Format: cell-based
Protocol: Cells were cultured in Dulbecco's modified Eagle's medium (DMEM, Biochrom, Berlin, Germany), supplemented with 10% fetal calf serum (FCS, Biochrom, Berlin, Germany), 100 U ml^−1 penicillin and 100 μg ml^−1 streptomycin at 37° C. in a 5% CO2/air incubator. […] For co-transfection of rat α1 glycine receptor subunits, the corresponding cDNA, each subcloned in the pCIS2 expression vector (Invitrogen, San Diego, USA), was added to the suspension. To visualize transfected cells, they were co-transfected with cDNA of green fluorescent protein (GFP 10 μg ml^−1). For transfection, we used an electroporation device by EquiBio (Kent, UK).
The compounds according to the present invention under investigation were prepared as 1 M stock solution in ethanol, light-protected and stored in glass vessels at −20° C. Concentrations were calculated from the amount injected into the glass vials. Drug-containing vials were vigorously vortexed for 60 min. Glycine and picrotoxin were dissolved directly in bath solution.
Patch electrodes contained [mM] KCl 140, MgCl2 2, EGTA 11, HEPES 10, glucose 10; the bath solution contained [mM]
A tight electrical seal of several GΩ formed between the cell membrane and a patch-clamp electrode allows inward currents due to agonist-induced channel activation to resolve in the pA range. Electrical resistance of the pipettes was around 5 MΩ, corresponding to a total access resistance in the whole-cell configuration of about 10 MΩ. The compounds according to the present invention under investigation were applied to the cells via a smooth liquid filament achieved with a single outflow (glass tubing 0.15 mm inner diameter) connected to a piezo crystal. The cells were placed at the interface between this filament and the continuously flowing background solution. When a voltage pulse was applied to the piezo, the tube was moved up and down onto or away from the cell under investigation. Correct positioning of the cell in respect to the liquid filament was ensured applying a saturating (1000 μM) glycine pulse before and after each test experiment. Care was taken to ensure that the amplitude and the shape of the glycine-activated current had stabilized before proceeding with the experiment. Test solution and glycine (1000 μM) were applied via the same glass-polytetrafluoroethylen perfusion system, but from separate reservoirs. The contents of these reservoirs were mixed at a junction immediately before entering the superfusion chamber.
The compounds under test were applied alone in order to determine their direct agonistic effects. A new cell was used for each compound and each protocol, at least three different experiments were performed for each setting. The amount of the diluent ethanol corresponding to the highest compound concentration used was 34 000 μM.
For data acquisition and further analysis the inventors used the Axopatch 200B amplifier in combination with pClamp6 software (Axon Instruments, Union City, Calif., USA). Currents were filtered at 2 kHz. Fitting procedures were performed using a non-linear least-squares Marquardt-Levenberg algorithm. Details are provided in the appropriate figure legends or in the results section.
Activated currents were normalized to their own maximum response. The dose-response-curves were fitted according to (Inorm=[1+(EC50/[C])^nH]^−1), where Inorm is the current induced directly by the respective concentration [C] of the compound, normalized to the maximum inward current.

[1] = EC50 (nM), α1 homomer, initial tests, Hill fit to normalised response, rat α1 receptors in HEK 293

Compound | EC50 [1] [nM] | nH (Hill coefficient), α1 homomer (initial tests, Hill fit to normalised response) | EC50 (EC50, further series of tests (later tests)) [nM]
CC(C)c1cc(-c2ccc(Cl)cc2)cc(C(C)C)c1O [4-(p-Cl—Ph)-propofol, 4-(para-Chlorophenyl)-propofol] | 0.2 ± 0.3 | 1.1 ± 0.5 | 
CC(C)c1cc(-c2ccc(Cl)c(F)c2)cc(C(C)C)c1O [p-(3-F,4-Cl—Ph)-propofol, Para-(3-Fluoro,4-chlorophenyl)-propofol] | 0.8 |  | 0.07
